From BindingDB's records for doi:10.1016/s0167-0115(98)00049-4 (Uppsala University, 1998)
Non-standard residues stand in square brackets, D forms with d. Residues, ends and D or L forms follow the SMILES beside them. Ahx = NCCCCCC(=O)O

Target: T1, Neuropeptide Y receptor type 2 (Cavia porcellus, UniProt Q9Z2D5)
T1 sequence (Q9Z2D5 whole entry): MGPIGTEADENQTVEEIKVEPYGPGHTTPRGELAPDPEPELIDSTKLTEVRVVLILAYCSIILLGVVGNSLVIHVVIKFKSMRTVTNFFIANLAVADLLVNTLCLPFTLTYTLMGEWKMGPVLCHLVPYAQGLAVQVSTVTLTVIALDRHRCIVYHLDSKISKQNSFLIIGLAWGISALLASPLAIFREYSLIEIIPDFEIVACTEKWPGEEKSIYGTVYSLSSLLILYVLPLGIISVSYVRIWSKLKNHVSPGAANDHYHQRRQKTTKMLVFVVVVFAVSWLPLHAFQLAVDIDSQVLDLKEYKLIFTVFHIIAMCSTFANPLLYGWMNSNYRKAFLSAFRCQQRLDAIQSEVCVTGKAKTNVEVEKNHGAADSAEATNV

Molecule	Ki [nM]
H-APLEPEYPGDNATPEQMAQYAAELRRYINMLTRPRY-NH2 [CAS_59763-91-6]	1000
CC[C@H](C)[C@H](NC(=O)[C@H](Cc1ccc(O)cc1)NC(=O)[C@H](Cc1cnc[nH]1)NC(=O)[C@H](CCCNC(=N)N)NC(=O)CCCCCNC(=O)[C@H](CCCCN)NC(=O)[C@H](CO)NC(=O)[C@@H]1CCCN1C(=O)[C@@H](N)Cc1ccc(O)cc1)C(=O)N[C@@H](CC(N)=O)C(=O)N[C@@H](CC(C)C)C(=O)N[C@H](C(=O)N[C@H](C(=O)N[C@@H](CCCNC(=N)N)C(=O)N[C@@H](CCC(N)=O)C(=O)N[C@@H](CCCNC(=N)N)C(=O)N[C@@H](Cc1ccc(O)cc1)C(N)=O)[C@@H](C)O)[C@@H](C)CC [NPY5-24, Ahx] (H-YPSK[Ahx]RHYINLITRQRY-NH2)	0.181
H-INPIYRLRY-NH2 [NPY 28-36, [P30, Y32, L34]]	295
CC[C@H](C)[C@H](NC(=O)[C@H](Cc1ccc(O)cc1)NC(=O)[C@H](Cc1cnc[nH]1)NC(=O)[C@H](CCCNC(=N)N)NC(=O)[C@H](CC(C)C)NC(=O)[C@H](C)NC(=O)[C@H](CO)NC(=O)[C@H](Cc1ccc(O)cc1)NC(=O)CCCCCNC(=O)[C@H](CC(N)=O)NC(=O)[C@H](CC(=O)O)NC(=O)[C@@H]1CCCN1C(=O)[C@H](CCCCN)NC(=O)[C@H](CO)NC(=O)[C@@H]1CCCN1C(=O)[C@@H](N)Cc1ccc(O)cc1)C(=O)N[C@@H](CC(N)=O)C(=O)N[C@@H](CC(C)C)C(=O)N[C@H](C(=O)N[C@H](C(=O)N[C@@H](CCCNC(=N)N)C(=O)N1CCC[C@H]1C(=O)N[C@@H](CCCNC(=N)N)C(=O)N[C@@H](Cc1ccc(O)cc1)C(N)=O)[C@@H](C)O)[C@@H](C)CC [NPY8-20, Pro34, Ahx] (H-YPSKPDN[Ahx]YSALRHYINLITRPRY-NH2)	85.3
CC[C@H](C)[C@H](NC(=O)[C@H](Cc1ccc(O)cc1)NC(=O)[C@H](Cc1c[nH]cn1)NC(=O)[C@H](CCCNC(=N)N)NC(=O)[C@H](CC(C)C)NC(=O)[C@H](C)NC(=O)[C@H](CO)NC(=O)[C@H](Cc1ccc(O)cc1)NC(=O)CCCCCNC(=O)[C@H](CC(N)=O)NC(=O)[C@H](CC(=O)O)NC(=O)[C@@H]1CCCN1C(=O)[C@H](CCCCN)NC(=O)[C@H](CO)NC(=O)[C@@H]1CCCN1C(=O)[C@@H](N)Cc1ccc(O)cc1)C(=O)N[C@@H](CC(N)=O)C(=O)N[C@@H](CC(C)C)C(=O)N[C@H](C(=O)N[C@H](C(=O)N[C@@H](CCCNC(=N)N)C(=O)N[C@@H](CCC(N)=O)C(=O)N[C@@H](CCCNC(=N)N)C(=O)N[C@@H](Cc1ccc(O)cc1)C(N)=O)[C@@H](C)O)[C@@H](C)CC [NPY8-20, Ahx] (H-YPSKPDN[Ahx]YSALRHYINLITRQRY-NH2)	0.117
CC[C@H](C)[C@H](NC(=O)[C@H](Cc1ccc(O)cc1)NC(=O)[C@H](Cc1cnc[nH]1)NC(=O)[C@H](CCCN=C(N)N)NC(=O)[C@H](CC(C)C)NC(=O)[C@H](C)NC(=O)[C@@H](N)CO)C(=O)N[C@@H](CC(N)=O)C(=O)N[C@@H](CC(C)C)C(=O)N[C@H](C(=O)N[C@H](C(=O)N[C@@H](CCCN=C(N)N)C(=O)N[C@@H](CCC(N)=O)C(=O)N[C@@H](CCCN=C(N)N)C(=O)N[C@@H](Cc1ccc(O)cc1)C(N)=O)[C@@H](C)O)[C@@H](C)CC [NPY22-36, rat, human]	0.136
